A short description of one data set: Color, ASTM D-1209. Type of data set: physicochemical. As to the method:
Color was measured using ASTM D-1209-05(2001 reapproved), and flash point was determined using ASTM D-92-12b.

Data set [1] can be described thus: Kinematic viscosity at 25° C., ASTM method. Type of data set: physicochemical. As to the method: Kinematic viscosity was tested at 25° C. using ASTM (American Society of Testing and Materials, West Conshohocken, Pa., USA) official method number D-44515a.
Data set [2] is described as follows: Acid value (AV), ASTM method. Type of data set: physicochemical. As to the method: Acid value (AV) was measured using ASTM official method number D-974-1 ? .
The nature of data set [3]: Moisture content by Karl-Fischer. It is filed as physicochemical. As to the method: Moisture content (% HOH) was measured using an automatic volumetric Karl-Fischer device, the Aquastar AQV21 (Gibbstown, N.J., USA.)
For data set [4] the following is noted: 60° C.; cited from earlier work.

For the molecule `CCCCCCC(C)OC(=O)CCC(=O)OC(C)CCCCCC` (stereo not shown) [bis(1-methylheptyl) butanedioate], the Color in “Color, ASTM D-1209” is on record as 12 APHA. The “Kinematic Viscosity” value in data set [1] is 12.0 cSt. In data set [2], the Acid value was found to be 0.01 mg KOH/g. Further, the Moisture in data set [3] is on record as 0.01 wt. %.
Take `CCOC(=O)c1ccccc1` [ethyl benzoate]: in data set [4], the “alkaline hydrolysis rate constant (kOH)” value is 0.258 M⁻¹ s⁻¹.
Regarding `CC(C)OC(=O)c1ccccc1` [isopropyl benzoate], the “alkaline hydrolysis rate constant (kOH)” value in data set [4] is 0.0533 M⁻¹ s⁻¹.
Turning to `CCCCCCC(=O)OCC(C)(C)COC(=O)CCCCCC` [neopentyl glycol diheptanoate], the Color in the data set “Color, ASTM D-1209” was found to be 17 APHA. In data set [1], the “Kinematic Viscosity” value is listed as 7.2 cSt. The same molecule came in with an Acid value in data set [2] of 0.05 mg KOH/g. In addition, in data set [3], the Moisture is 0.01 wt. %.
